Results published in ChEMBL document CHEMBL2390891, “Discovery of new potent inhibitors for carbonic anhydrase IX by structure-based virtual screening” (Bioorg Med Chem Lett, 2013).

Key:
Carbonic anhydrase 9 = Carbonic anhydrase 9 (Homo sapiens, UniProt Q16790); experiment: Inhibition of GST-tagged recombinant carbonic anhydrase-9 catalytic domain (unknown origin)
Carbonic anhydrase 2 = Carbonic anhydrase 2 (Homo sapiens, UniProt P00918); experiment: Inhibition of full length carbonic anhydrase-2 in human erythrocytes; assay type: cell-based
Carbonic anhydrase 1 = Carbonic anhydrase 1 (Homo sapiens, UniProt P00915); experiment: Inhibition of full length carbonic anhydrase-1 in human erythrocytes; assay type: cell-based
Chain of Carbonic anhydrase 1 (P00915 whole entry): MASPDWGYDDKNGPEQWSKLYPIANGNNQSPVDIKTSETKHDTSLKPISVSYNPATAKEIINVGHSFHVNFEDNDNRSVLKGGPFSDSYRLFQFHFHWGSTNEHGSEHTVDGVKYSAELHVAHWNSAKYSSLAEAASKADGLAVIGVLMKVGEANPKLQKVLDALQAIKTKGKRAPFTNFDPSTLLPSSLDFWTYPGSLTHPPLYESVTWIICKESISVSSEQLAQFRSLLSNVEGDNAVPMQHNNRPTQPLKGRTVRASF

| Structure (SMILES) | IC50 (Carbonic anhydrase 9) [nM] | IC50 (Carbonic anhydrase 2) [nM] | IC50 (Carbonic anhydrase 1) [nM] |
| --- | --- | --- | --- |
| NS(=O)(=O)c1cc(C(=O)NCCOc2ccccc2)c(Cl)cc1Cl | 10.4 | 10.6 | 16.7 |
| COc1ccc(Cl)cc1CNCCc1ccc(S(N)(=O)=O)cc1 | 68.5 | – | – |
| COc1ccc(CNc2ccc(S(N)(=O)=O)cc2)cc1OC | 342 | – | – |
| CC1=NN(c2cccc(S(N)(=O)=O)c2)C(=O)C1 | 588 | 809 | 1190 |
| NS(=O)(=O)c1ccc(NC(=S)NC(=O)c2ccccc2)cc1 | 2.86 | – | – |

Continued, values first:

| IC50 (Carbonic anhydrase 9) [nM] | IC50 (Carbonic anhydrase 2) [nM] | IC50 (Carbonic anhydrase 1) [nM] | Structure (SMILES) |
| --- | --- | --- | --- |
| 3.11 | 42 | – | NS(=O)(=O)c1ccc(-n2cccc2/C=C2/C(=O)NN(c3ccc(F)cc3)C2=O)cc1 |
| 21.6 | – | – | NS(=O)(=O)c1ccc(NC(=O)c2cccc(N3C(=O)CCC3=O)c2)cc1 |
| 28.4 | – | – | NS(=O)(=O)c1cccc(NS(=O)(=O)c2ccc3c4c(cccc24)C(=O)N3)c1 |
| 19.1 | – | – | CC1=NN(c2ccc(S(N)(=O)=O)cc2)C(=O)/C1=C\C=C\c1ccccc1 |
| 14.9 | – | – | Cc1ccc(N2NC(=O)/C(=C/c3cccn3-c3ccc(S(N)(=O)=O)cc3)C2=O)cc1 |
| 4.53 | – | – | NS(=O)(=O)c1ccc(/N=C2/NC(=O)/C(=C/c3cc(O)ccc3Br)S2)cc1 |
| 199 | – | – | NS(=O)(=O)c1ccc(CNC2CC(=O)N(c3cccc(Br)c3)C2=O)cc1 (stereo not given) |
| 18.8 | 153 | 173 | NS(=O)(=O)c1ccc(CCNCc2cccc3ccccc23)cc1 |
